Reference: patent US6338963B1, “Use of carbon monoxide dependent guanylyl cyclase modifiers to stimulate neuritogenesis” (NeoTherapeutics, Inc., priority 1994, dated 2002)
Marks after values point to notes of the source that are not given here. No end group written: not given here.

Assays:
[1] = tested on: cGMP levels in PC12 cells; test: cGMP levels in PC12 cells (radioimmunoassay); type: cell-based, rat; conditions: NGF-primed PC12 cells
Description: Initially, PC-12 cells were primed with 40 ng/ml NGF for 3 days in low serum medium (1.5% horse serum+5% fetal calf serum). Cells were seeded onto assay plates in low serum medium containing 40 ng/ml NGF and incubated for 1 hour. The medium was changed to low arginine medium (80 μM) with no serum and NGF and papaverine ([…]) where indicated. Test compounds were added for the indicated time and the reaction was stopped by adding 5% TCA containing 10,000 dpm of ^3H-cGMP. cGMP was assayed by the radioimmunoassay method of Maurice (Mol. Pharmacol. 37: 671-681, 1990). TCA was purified by adding powdered charcoal (5 g) and filtering the mixture through Whatman #1 paper. This removed contaminants in the TCA that otherwise interfere with the radioimmunoassay (RIA) of cGMP.
It was necessary to purify the cGMP from cAMP and other contaminants before radioimmunoassay since these other materials can interfere with the assay. Briefly, the TCA solution was applied to Dowex columns (50W-8X, 200-400 mesh) and eluted. A neutral alumina column was then placed under each Dowex column. The cGMP was eluted from the Dowex columns into neutral alumina columns by adding 4 mL of 0.05 M HCl to each Dowex column. The neutral alumina columns were then sequentially rinsed with 2 ml of HCl, 4 mL water and finally with 0.2 M sodium acetate (pH 6.2). The cGMP collected for the RIA eluted in 1 ML of sodium acetate with a recovery between 50-65%. The cGMP was assayed using a Dupont RIA kit.

TGFβ2 = TGFβ2 release from rat cultured astrocytes (ELISA); type: cell-based; conditions: 100 nm wortmannin, 10 μM PD098,059 or 500 ng/ml CHX added 30 min before and kept 24 hours with 100 μM AIT-082
Description: (§1) NGF and TGFβ2 levels were assayed in the culture medium of the astrocytes by specific ELISA assays using kits from Roche (Germany) and Promega (USA) respectively. NGF basal levels were 56.3±3.2 pg/ml. TGFβ2 levels were 9.1±0.06 pg/ml.
(§2) In FIG. 61, the dose-response curves of NGF and TGFβ2 release from rat cultured astrocytes as the result of exposure to AIT-082 are shown.

NGF = NGF release from rat cultured astrocytes (ELISA); type: cell-based; conditions: 100 nm wortmannin, 10 μM PD098,059 or 500 ng/ml CHX added 30 min before and kept 24 hours with 100 μM AIT-082
Description: The dose response for AIT-082 and guanosine on nerve growth factor and S100β protein release from rat culture astrocytes is shown in FIG. 30. NGF was assayed by a double-site ELISA, using a monoclonal anti-NGF antibody, coupled or not to β-galactosidase according to the method of I. D. Laviada et al., “Phosphatidylcholine-Phospholipase C Mediates the Induction of Nerve Growth Factor in Cultured Glial Cells,” FEBS Lett. 364: 301-304 (1995).
The NGF and S100β protein were measured by removing the cultured medium for the ELISA assays at each indicated time point.
as §1, §2

PC12 cells = test: Neuritogenesis in PC12 cells; type: cell-based, rat; conditions: for enhancement of NGF-induced neurite outgrowth: in the presence of NGF, 48 hours; for effect of inhibitor on neuritogenic effects of guanosine: PC12 cells with guanosine and NGF
Description: Much of the work performed in the characterization of the compounds of the present invention involved the use of PC12 cells. These cells are derived from a rat pheochromocytoma and when grown in the presence of NGF, extend neurites, cease cell division and assume many characteristics of sympathetic neurons. When cultured in the absence of nerve growth factor (NGF), few PC12 cells have neurites greater than one cell diameter. Addition of saturating concentrations of NGF for 48 hours stimulates neurite outgrowth in about 20-35% of the cells. Because they constitute a homogeneous population of neuronal-like cells, without contaminating astroglia type cells, it is possible to study the direct effects of the purine based compounds on neurite outgrowth in these cells.
Cells cultured in RPMI 1640 with 1.5% horse serum and 1.5% fetal bovine serum were re-plated onto poly-ornithine coated 24-well culture plates (2.5×10^4 cells per well). AIT-082 and NGF were added to the various cultures immediately upon plating. After 48 hours, medium was removed and the cells irnmediately fixed in 10% formalin and PBS for 10 minutes. Cells and neurites were counted within 2 days of fixation.
A neurite was defined as a process extending from the cell at least 1 cell body diameter in length and displaying a growth cone at its tip. For each treatment, 2 representative microscope fields were counted from each of 6 sister cultures receiving identical treatments. The total number of cells counted per well (approximately 100 cells) and the total number of cells containing neurites in each well were used to determine fraction of neurite-bearing cells. The mean values (±SEM) were then determined for each of the treatments. To facilitate comparison neurite outgrowth was expressed relative to the proportion of cells bearing neurites in the presence of NGF alone (NGF=100%). The effects of compounds with and without NGF were compared by analysis of variance (ANOVA) followed by Tukey's test for significance.
The results are shown in FIG. 3 where the curve represents different levels of AIT-082 plus saturating concentrations (40 ng/ml) NGF. The center horizontal line represents control values for cells cultured in the presence of 40 ng/ml NGF alone. Upper and lower horizontal lines are indicative of confidence limits of NGF alone as determined using standard statistical methods.

Swiss Webster mice [2] = test: Win-shift T-maze memory test, Swiss Webster mice; type: in vivo; conditions: 90-second inter-trial interval, PHY 0.125 mg/kg i.p.
Description: Male Swiss Webster mice six months (young adult) and eleven months (old) of age, obtained from the National Institute on Aging, were maintained in individual cages, on a […] light/dark cycle with continuous access to water. Food was limited so that the mice stabilized at 80% of free feeding weight. Mice were weighed and handled daily for one week. The win-shift model was run as described in the literature and consists of a T-maze in which the correct response alternates after each correct trial. The interval between trials is varied and allows for the determination of the longest period between trials that a subject can remember the correct response on the previous trial. This allows the measure of the duration of the memory trace. […] The reward goal box is alternated after each correct trial. Ten trials per mouse are run each day. […] The latency time to leave the start box is recorded as a measure of motivation, the running time (the time from leaving the start box to reaching the goal box) is recorded as a measure of performance, and the number of correct responses as a measure of memory.
The drugs used in this example are 4-((3-(1,6-dihydro-6-oxo-9-purin-9-yl)-1-oxopropyl)amino) benzoic acid (AIT-082), as an exemplary potassium salt, tacrine hydrochloride (tetrahydroaminoacridine, THA, Sigma Chemical Co., St. Louis, Mo.), and physostigmine, hemisulfate salt (PHY, Sigma Chemical Co., St. Louis, Mo.). The drugs were dissolved in saline and prepared fresh daily. All injections were made at a volume of 0.1 ml/10 grams body weight. When testing drug effects, intraperitoneal (i.p.) injections of AIT-082 or THA were made one hour prior to the start of testing. Due to its shorter duration of action, PHY was injected 30 minutes prior to testing. Control subjects receive a similar injection of saline (vehicle).
(§3) To determine the duration of the memory trace, subjects were administered drug or saline and 30 minutes (PHY) or 1 hour (AIT-082 or THA) later they were given a single reference run with the milk reward in both goal boxes. After the indicated inter-trial delay, subjects were returned to the start box and given the first test trial with the milk reward only in the goal box opposite to the one entered on the previous correct trial. The subjects were given 10 trials with the reward alternating only after correct responses.
To determine if tolerance to the biological effects of AIT-082 developed, drug or saline was administered daily for 18 days prior to the testing in the standard win-shift paradigm.

C57BL/6 mice [3] = test: Win-shift test, C57BL/6 mice with age-induced memory deficits; type: in vivo; conditions: for subjects performing significantly above chance/total number of subjects: PHY 0.125 mg/kg
Description: Twelve-month old male C57BL/6 mice were screened for performance in the win-shift foraging test. Subjects were tested at various inter-trial time intervals. Subjects who could not perform to criteria (>60% correct) at 10 seconds delay were classified as having a severe deficit. Subjects who performed to criteria at 10 seconds but not at 30 seconds were classified as having a moderate degree of deficit and subjects who performed to criteria at 30 seconds but not at 60 seconds were classified as having mild deficit. As in Example 21, subjects in each group were treated with either AIT-082 or PHY to determine the extent to which the working memory trace was prolonged. The results are presented in Table M directly below and graphically represented in FIG. 10.

Swiss Webster mice [4] = test: Win-shift test, Swiss Webster mice with age-induced memory deficits; type: in vivo; conditions: PHY 0.125 mg/kg
Description: Twelve-month old male Swiss Webster mice were screened for performance in the win-shift foraging test. Subjects were tested at various time delays, beginning at 10 seconds and increasing the inter-trial time interval to 30, 60, 90 and 120 seconds.
Subjects with severe impairment could not remember the correct response at 10 seconds while subjects with mild deficit could remember the correct response with a 30 second inter-trial interval but not at 60 seconds. Subjects with a moderate deficit could remember the correct response with a 10 second inter-trial interval but not […] at 30 seconds. Thus, the win-shift model can detect age-induced impairments in working memory. As will be appreciated by those skilled in the art, this observation is important since it provides the ability to use age-matched subjects with varying degrees of impairment for evaluation of potential therapeutic agents.
Following the establishment of a baseline, six subjects in each of the three groups were treated with AIT-82 (30 mg/kg, one hour before testing) or physostigmine (0.125 mg/kg, 30 minutes before testing) using the win-shift foraging test. The results are presented in Table L directly below and graphically represented in FIG. 9.

C57BL/6 mice [5] = test: Win-shift duration of memory trace, C57BL/6 mice; type: in vivo; conditions: for Correct (Mean score ± S.E.) / No. above chance/Total #: Physostigmine 0.125 mg/kg
Description: as §3
Previous work has established that normal adult Swiss Webster mice have a memory trace duration of 60 seconds in the win-shift paradigm which may be increased by the administration of AIT-082.

[6] = Moderate deficit, interval 30 sec
[7] = Moderate deficit, interval 60 sec
[8] = Severe deficit, interval <10 sec

## CNc1ccc2oc(C[C@H]3O[C@@]4(CC[C@H]3C)O[C@H]([C@H](C)C(=O)c3ccc[nH]3)[C@H](C)C[C@H]4C)nc2c1C(=O)O [A23187, reference compound]
[1]
  cGMP in PC12 cells: failed to elicit an increase in cGMP

## COc1cccc(-c2cc(=O)c3ccccc3o2)c1N [PD098,059, reference compound]
TGFβ2
  effect of inhibitor on AIT-082-induced accumulation of TGFβ2: partly inhibited
NGF
  effect of inhibitor on AIT-082-induced accumulation of NGF: partly inhibited

## O=c1[nH]c(=O)c2[nH]cnc2[nH]1 [xanthine]
PC12 cells
  modification of neural activity: relatively ineffective
  enhancement of NGF-induced neurite outgrowth: only slightly enhanced NGF-induced neurite outgrowth
PC12 cells; PC12 cells
  concentration toxic to the cells: 300000 µM

## ANF: atrial natriuretic factor, a hormone activating particulate guanylyl cyclase (SLRRSSCFGGRMDRIGAQSGLGCNSFRY; ends and bridges not checked; cysteine pairing not given here; UniProt P01160 124-151, looked up)
PC12 cells
  enhancement of NGF-induced neurite outgrowth: enhanced NGF-stimulated neurite outgrowth

## Methemoglobin: captures and removes nitric oxide (NO) and carbon monoxide (CO) from the culture media
PC12 cells; PC12 cells
  effect of inhibitor on neuritogenic action of AIT-082: inhibited the action of AIT-082
PC12 cells; PC12 cells with NGF
  effect of inhibitor on NGF neuritogenic activity: no effect on NGF activity
  effect on neuritogenic properties of the NO donors: inhibited

## copper protoporphyrin IX [CuPP]
PC12 cells
  effect of inhibitor on neuritogenic effects of guanosine: did not reduce the ability of guanosine to enhance NGF-dependent neurite outgrowth

## hemoglobin
PC12 cells; PC12 cells
  effect of inhibitor on neuritogenic action of AIT-082: inhibited
PC12 cells; PC12 cells with NGF
  effect on neuritogenic properties of the NO donors: inhibited
PC12 cells
  effect of inhibitor on neuritogenic effects of guanosine: inhibited the neuritogenic effects of guanosine

## physostigmine, hemisulfate salt [reference compound]
Swiss Webster mice [2]
  Win-shift Memory Test, Correct responses: 6.5 Correct responses/10 trials
C57BL/6 mice [3]; Mild deficit, interval 60 sec
  subjects performing significantly above chance/total number of subjects: 7/8*
C57BL/6 mice [3]; Mild deficit, interval 90 sec
  subjects performing significantly above chance/total number of subjects: 3/8
C57BL/6 mice [3]; Mild deficit, interval 120 sec
  subjects performing significantly above chance/total number of subjects: 2/8
C57BL/6 mice [3]; Mild deficit, interval 150 sec
  subjects performing significantly above chance/total number of subjects: 2/8
C57BL/6 mice [3]; Mild deficit, interval 180 sec
  subjects performing significantly above chance/total number of subjects: 2/8
C57BL/6 mice [3]; Mild deficit, interval 210 sec
  subjects performing significantly above chance/total number of subjects: 0/8
C57BL/6 mice [3]; Moderate deficit, interval 10 sec
  subjects performing significantly above chance/total number of subjects: 6/6
C57BL/6 mice [3]; [6]
  subjects performing significantly above chance/total number of subjects: 1/6
C57BL/6 mice [3]; [7]
  subjects performing significantly above chance/total number of subjects: 0/6
C57BL/6 mice [3]; [8]
  subjects performing significantly above chance/total number of subjects: 0/6
C57BL/6 mice [3]; moderate deficit group, PHY
  prolongation of memory: ineffective in the moderate group
Swiss Webster mice [4]; Mild deficit, interval 60 sec
  subjects performing significantly above chance/total number of subjects: 5/6*
Swiss Webster mice [4]; Mild deficit, interval 90 sec
  subjects performing significantly above chance/total number of subjects: 3/6
Swiss Webster mice [4]; Mild deficit, interval 120 sec
  subjects performing significantly above chance/total number of subjects: 2/6
Swiss Webster mice [4]; Mild deficit, interval 150 sec
  subjects performing significantly above chance/total number of subjects: 2/6
Swiss Webster mice [4]; Mild deficit, interval 180 sec
  subjects performing significantly above chance/total number of subjects: 1/6
Swiss Webster mice [4]; Mild deficit, interval 210 sec
  subjects performing significantly above chance/total number of subjects: 0/6
Swiss Webster mice [4]; [6]
  subjects performing significantly above chance/total number of subjects: 1/6
Swiss Webster mice [4]; [7]
  subjects performing significantly above chance/total number of subjects: 0/6
Swiss Webster mice [4]; [8]
  subjects performing significantly above chance/total number of subjects: 0/6
C57BL/6 mice [5]; inter-trial interval 180 sec
  Correct (Mean score ± S.E.): 65 ± 16
  No. above chance/Total #: 3/6
C57BL/6 mice [5]; inter-trial interval 210 sec
  Correct (Mean score ± S.E.): 53 ± 9
  No. above chance/Total #: 1/6
C57BL/6 mice [5]; physostigmine, untreated 120 seconds
  duration of the memory trace: 180 s
